Test results published in patent US11202789B2, “Method of treating glycogen storage disease” (Viking Therapeutics, Inc., priority 2016, dated 2021).
Entries after “also recorded” stand apart in the source; their conditions may differ.

Tests used:
Format in all cases: in vivo
beagle dogs = assay: Compound 2 dosing study in dogs: plasma cholesterol; conditions: for average reduction of total plasma cholesterol levels: Day 15, from baseline
Procedure: Compound 2 Dosing Study in Dogs: The objective of the study was to determine the effects of oral administration of Compound 2 once-daily for 14 days followed by alternate day dosing for 14 days on plasma cholesterol levels and indicators of thyroid function in beagle dogs. Compound 2 was formulated with Lutrol F68 NF (Poloxomer 188) and carboxymethylcellulose (CMC; sodium salt/high viscosity) and was administered as a suspension in 0.5% CMC/1% Lutrol in deionized water. […] At the end of the treatment cycle (Cycle 1), the dogs were washed out for 4 weeks and then entered into a second 14-day treatment cycle. Cycle 2 employed the same dosing paradigm as Cycle 1, but animals were randomized to Cycle 2 in such a way that the combined dosing groups from the two cycles consisted of 4 different animals (2 males, 2 females) each. At the conclusion of Cycle 2, dosing was continued on alternate days for an additional 14-day period (Cycle 2 Extension). Blood samples were collected at baseline and appropriate time intervals thereafter and analyzed for total plasma cholesterol levels, serum levels of total T4 (tT4), free T4 (fT4), total T3 (tT3), free T3 (fT3), and thyroid stimulating hormone (TSH).

[1] = system: male Zucker Diabetic fatty (ZDF) rats; assay: 4-week (28 days) efficacy and safety study in male Zucker Diabetic fatty (ZDF) rats
Procedure: Objectives: The objective of the study was to evaluate the efficacy and safety of Compound 2 treatment for 4 weeks in male Zucker Diabetic fatty (ZDF) rats. Total plasma cholesterol, blood glucose levels, liver and muscle glycogen levels, and a plasma clinical chemistry were evaluated. Additionally, histological and biochemical assessments of hepatic steatosis were performed post-mortem. MB07875, a known human thyroid hormone receptor ligand, was included as a comparator in these studies.
Methods: Eight-week old male ZDF rats (n=5/group) were treated orally with Compound 2 or MB07875 for 28 days. The doses of Compound 2 [in 0.5% carboxymethylcellulose (CMC)] were 0.25, 0.5, 1, 2.5, 5, 15 and 50 mg/kg/day. The dose of MB07875 (in 0.5% CMC) was 0.2 mg/kg/day. Body weight was assessed just prior to treatment and at 24 hours following the last dose. Total plasma cholesterol and blood glucose were measured on a weekly basis. […] In addition, the liver was removed and weighed, and a portion freeze-clamped for glycogen and triglyceride analysis. Another portion was placed in 10% neutral buffered formalin for hematoxalin and eosin (H & E) staining. Finally, the heart was excised and weighed.

G6PC−/− mice = assay: G6pc−/− mouse model of GSD Ia, 4 days of treatment (Example 13)
Procedure: The objective of this study was to determine the ability of Compound 2, a small molecule prodrug of a potent thyroid hormone beta receptor (TBR) agonist, to reduce hepatic steatosis and other metabolic derangements in the glucose-6-phosphatase catalytic subunit knockout (G6pc−/−) mouse model of glycogen storage disease type Ia (GSD Ia).
Mice were treated with Compound 2 or with vehicle, using 4 groups of 6-7 mice: G6pc−/−mice receiving Compound 2, G6pc−/−mice receiving vehicle, Wt mice receiving Compound 2, and WT mice receiving vehicle. Daily injection of 0.1 to 0.2 mL 10% dextrose subcutaneously was initiated at 3 days of age for all mice, and all mice continued to receive daily dextrose injections throughout drug or vehicle treatment. Dextrose was not administered on the day of tissue collection. Mice were treated daily with Compound 2 or with vehicle, respectively, from 5 to 8 days of age. Mice were sacrificed on Day 9, and blood and tissues were collected. The fasting serum glucose and triglycerides, hepatic lipid and glycogen content, and GSD-related cell signaling pathways were examined.

male ob/ob mice = assay: 9-week efficacy and safety study in male ob/ob mice; conditions: for total plasma cholesterol levels lower: after 9 weeks; for liver triglyceride levels lower: at 9 weeks
Procedure: The objective of this study was to evaluate the efficacy and safety of Compound 2 treatment at doses of 3, 10, and 30 mg/kg/day for 9 weeks in male ob/ob mice. 3,3′,5-Triiodo-L-thyronine (T3) was used as a comparator in this study.
Methods: Seventy-eight adult male ob/ob mice were assigned to six different treatment groups (n=6-24/group). Animals were dosed daily with either vehicle [1% carboxymethylcellulose (CMC) in water, PO], T3 [(100 nmole/kg/day in aqueous solution, subcutaneous (SC)], or Compound 2 [3, 10 or 30 mg/kg/day in 1% CMC, PO]. Blood glucose and plasma cholesterol were measured weekly in all animals. Subsets of animals in the vehicle-treated and 30 mg/kg/day Compound 2-treated groups were sacrificed after 3, 6 and 9 weeks of treatment to analyze the temporal effects of Compound 2 on liver weight and liver triglyceride levels. Liver triglyceride levels, liver glycogen content, heart, liver and epididymal fat pad weights, and plasma clinical chemistry parameters were measured at sacrifice.

[2] = Compound 2 0.25-50 mg/kg/day oral, 28 days

Cc1cc(OCP2(=O)OCCC(c3cccc(Cl)c3)O2)cc(C)c1Cc1ccc(O)c(C(C)C)c1 (stereo not shown) [Compound 2]
effects on total plasma cholesterol levels (beagle dogs; 0.1 mg/kg/day oral once-daily): minimal effects | average reduction of total plasma cholesterol levels from baseline (beagle dogs; Day 15, 0.3 mg/kg/day oral once-daily for 14 days): ~22% | average reduction of total plasma cholesterol levels from baseline (beagle dogs; Day 15, 10 mg/kg/day oral once-daily for 14 days): ~47% | average reduction of total plasma cholesterol levels (beagle dogs; 0.3 mg/kg/day oral once-daily for 14 days): ~28 mg/dL | average reduction of total plasma cholesterol levels (beagle dogs; 10 mg/kg/day oral once-daily for 14 days): ~71 mg/dL | total plasma cholesterol levels relative to vehicle-treated animals (beagle dogs; alternate day dosing for 14 days (Cycle 2 Extension)): remained reduced relative to vehicle-treated animals to a similar or greater extent than observed after once-daily dosing | reduction of total plasma cholesterol ([1]; 1 mg/kg/day oral, day 28, vs vehicle): ~25% | total bilirubin increased ([1]; 2.5 mg/kg/day oral, day 28): ~86% | blood glucose levels decreased ([1]; 2.5 mg/kg/day oral, day 28, vs vehicle): ~47% | albumin-to-globulin ratio increased ([1]; 15 mg/kg/day oral, day 28): 21% | blood urea nitrogen decreased ([1]; 15 mg/kg/day oral, day 28): ~21% | liver glycogen levels reduced ([1]; 50 mg/kg/day oral, 28 days, dose-dependent): > 90% | albumin-to-globulin ratio increased ([1]; 50 mg/kg/day oral, day 28): 32% | alkaline phosphatase decrease ([1]; 50 mg/kg/day oral, day 28): ~42% | blood urea nitrogen decreased ([1]; 50 mg/kg/day oral, day 28): ~26% | calcium levels decreased ([1]; 50 mg/kg/day oral, day 28): ~5% | phosphorus levels increased ([1]; 50 mg/kg/day oral, day 28): ~27% | total bilirubin increased ([1]; 50 mg/kg/day oral, day 28): ~79% | total protein levels decreased ([1]; 50 mg/kg/day oral, day 28): ~10% | reduction of total plasma cholesterol ([1]; 50 mg/kg/day oral, day 28, vs vehicle): ~34% | effect on body weight [1, 2]: no significant effect | effect on heart weight [1, 2]: no significant effect | liver triglyceride content [1, 2]: no statistically significant decrease | muscle glycogen levels ([1]; Compound 2 0.25-50 mg/kg/day oral, 28 days, vs vehicle): unaffected; also recorded: no significant differences | blood glucose levels ([1]; Compound 2-treated groups (0.25-50 mg/kg/day), any time during the study): not increased | globulin decreased ([1]; doses of 5 mg/kg/day and above, oral, day 28): ≤ 25% | microvesicular steatosis, histological analysis of liver sections ([1]; doses ≥2.5 mg/kg/day oral, 28 days): decrease | decrease in liver glycogen levels relative to vehicle ([1]; highest dose evaluated (50 mg/kd/day), after 28 days of dosing): ~90% | cardiovascular function (heart rate, systolic and diastolic aortic pressure, LV dP/dt) ([1]; up to 50 mg/kg/day oral, 28 days): did not alter | difference in kidney mass as a percentage of total body mass, Compound 2 vs vehicle (G6PC−/− mice; G6pc−/− mice (FIG. 23B)): not significant | mean total liver triglycerides reduced (G6PC−/− mice; G6pc−/− mice, 4 days of drug treatment, vs vehicle-treated controls, p<0.0001): 69.0% | mean serum triglyceride concentration (G6PC−/− mice; G6pc−/− mice, drug treatment (vehicle 729.59 mg/dL)): 336.58 mg/dL | decrease in mean serum triglyceride concentration (G6PC−/− mice; G6pc−/− mice, drug treatment vs vehicle): 54.0% | mean total liver triglycerides (G6PC−/− mice; G6pc−/− mice, following 4 days of drug treatment (vehicle 13.550 mg)): 4.210 mg | blood glucose measurements (G6PC−/− mice; G6pc−/− mice, lower detection limit of the glucometer (FIG. 27)): < 20 mg/dL | mean liver weights (G6PC−/− mice; G6pc−/− mice, treated (control 393.55 mg)): 253.11 mg | mean liver weights reduced (G6PC−/− mice; G6pc−/− mice, treated vs control, p<0.05): over 30% | body mass (G6PC−/− mice; daily treatment from 5 to 8 days of age (FIG. 22)): not affected | kidney mass (G6PC−/− mice; daily treatment from 5 to 8 days of age (FIG. 23)): not affected | liver glycogen concentration (G6PC−/− mice; under the dosing parameters chosen (FIG. 26)): no significant changes | serum glucose concentration (G6PC−/− mice; under the dosing parameters chosen (FIG. 27)): no significant changes | serum triglyceride concentration (G6PC−/− mice; under the dosing parameters chosen (FIG. 28)): no significant changes | total plasma cholesterol levels lower (male ob/ob mice; 3 mg/kg/day PO, vs vehicle): ~43% | liver glycogen content (male ob/ob mice; 10 mg/kg/day PO, 9 weeks, vs vehicle (FIG. 5)): significantly (p<0.05) higher | total plasma cholesterol levels lower (male ob/ob mice; 10 mg/kg/day PO, vs vehicle): ~42% | liver triglyceride levels lower (male ob/ob mice; 10 mg/kg/day PO, vs vehicle): ~39% | total plasma cholesterol levels lower (male ob/ob mice; 30 mg/kg/day PO, vs vehicle): ~47% | liver triglyceride levels lower (male ob/ob mice; 30 mg/kg/day PO, vs vehicle): ~46% | liver triglyceride levels (male ob/ob mice; 30 mg/kg/day PO, from Week 3 onwards, vs vehicle): lower | terminal liver glycogen levels (male ob/ob mice; Compound 2-treated groups (3, 10, 30 mg/kg/day PO), 9 weeks, vs vehicle): modestly higher or similar | alanine aminotransferase (ALT) levels (male ob/ob mice; all dose groups (3, 10, 30 mg/kg/day PO)): Decreased | terminal liver weights (male ob/ob mice; all dose groups (3, 10, 30 mg/kg/day PO), 9 weeks, vs vehicle): lower
